Laboratory results: US12502380B2, “MrgprX2 antagonists for the treatment of inflammatory disorders” (Dermira, Inc., priority 2019, dated 2025)

target: T1, Human MrgprX2 (Homo sapiens, UniProt Q96LB1); test: Human MrgprX2 antagonist FLIPR intracellular calcium mobilization assay; assay type: cell-based; settings: antagonist activity, recombinant hMrgpMRGPRX2 expressing cells, read-out: Human MrgprX2 Antagonist pIC50 (converted)
T1 construct: expressed in transfected cells
T1 sequence (Q96LB1 1-330): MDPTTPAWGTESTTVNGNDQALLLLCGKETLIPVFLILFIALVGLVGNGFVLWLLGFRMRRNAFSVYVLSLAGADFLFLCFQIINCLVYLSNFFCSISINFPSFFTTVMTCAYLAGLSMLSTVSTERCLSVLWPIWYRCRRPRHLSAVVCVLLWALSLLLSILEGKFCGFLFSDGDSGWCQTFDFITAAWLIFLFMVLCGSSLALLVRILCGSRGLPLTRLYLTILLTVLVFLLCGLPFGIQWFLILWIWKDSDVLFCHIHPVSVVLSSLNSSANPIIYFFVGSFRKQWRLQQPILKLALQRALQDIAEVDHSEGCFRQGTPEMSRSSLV
Description: Potent and selective hMrgpMRGPRX2 compounds have been generated from compounds identified during a high throughput screening (HTS) campaign and followed up with cycles of structure activity based medicinal chemistry efforts. These compounds were characterized in recombinant hMrgpMRGPRX2 expressing cells for their antagonist activity and the potency was confirmed in the human mast cell line LAD-2, where the target is endogenously expressed. The assays used to determine potencies are functional read-out looking at intracellular calcium mobilization using the FLIPR™ technology. In these FLIPR assays, we test the identified compounds using recombinant cellular systems expressing mouse MrgprB2, mouse MrgprA1, gerbil MrgpMRGPRX2 orthologue, Chinese hamster MrgpMRGPRX2 orthologue and cynomolgus monkey MrgpMRGPRX2 orthologue, respectively for orthologue activity.

| IC50 [nM] | Compound |
| --- | --- |
| 39.8 | C[C@H](O)CN(C)C(=O)Nc1ncc(Oc2ccc(C#N)cc2)s1 [Compound E156] |
| 794 | CC(C)C(=O)Nc1ncc(C(C)c2ccccc2)s1 (stereo not shown) [Compound E219, 2-methyl-N-[5-(1-phenylethyl)thiazol-2-yl]propanamide] |
| 3160 | C[C@H](O)CN(C)C(=O)Nc1ncc(Cc2ccc(C#N)cc2)s1 [Compound E145] |
| 2510 | CCN(C[C@H](C)O)C(=O)Nc1ncc(Oc2ccnc(C#N)c2)s1 [Compound E181] |
| 0.631 | CCN(C[C@H](C)O)C(=O)Nc1ncc(Oc2ccc(F)cc2)s1 [Compound E154] |
| 2510 | C[C@H](O)CN(C)C(=O)Nc1ncc(Oc2ccc(C(F)(F)F)cc2)s1 [Compound E160] |
| 251 | C[C@H](O)CN(C)C(=O)Nc1ncc(Oc2ccc(F)nc2)s1 [Compound E169] |
| 100 | CCN(C[C@H](C)O)C(=O)Nc1ncc(Oc2cccnc2)s1 [Compound E166] |
| 2510 | CCN(C[C@H](C)O)C(=O)Nc1ncc(Oc2cncnc2)s1 [Compound E201] |
| 15.8 | C[C@@H](O)CN(C)C(=O)Nc1ncc(Oc2ccccc2)s1 [Compound E148] |
| 3.98 | CCN(C[C@H](C)O)C(=O)Nc1ncc(Oc2ccc(F)nc2)s1 [Compound E170] |
| 2000 | C[C@H](O)CN(C)C(=O)Nc1ncc(Oc2cc(F)ccc2C#N)s1 [Compound E195] |
| 1580 | C[C@H](O)CN(C)C(=O)Nc1ncc(Cc2cccc(C#N)c2)s1 [Compound E144] |
| 126 | CCN(C[C@H](C)O)C(=O)Nc1ncc(Oc2ccc(C)nc2)s1 [Compound E157] |
| 10 | C[C@H](O)CN(C)C(=O)Nc1ncc(Cc2cccc(F)c2F)s1 [Compound E137] |
| 1000 | CCN(C[C@H](C)O)C(=O)Nc1nc(C#N)c(Oc2ccc(F)cc2)s1 [Compound E207] |
| 6310 | CC(C)NC(=O)c1cc(Cc2cc(F)cc(F)c2)on1 [Compound E221, 5-[(3,5-difluorophenyl)methyl]-N-isopropyl-isoxazole-3-carboxamide] |
| 158 | CCN(C[C@H](C)O)C(=O)Nc1ncc(Oc2ccc(C#N)nc2)s1 [Compound E212] |
| 251 | CCN(C[C@H](C)O)C(=O)Nc1ncc(Oc2cccc(F)c2C#N)s1 [Compound E199] |
| 7.94 | CCN(C[C@H](C)O)C(=O)Nc1nc(C)c(Oc2ccc(F)cc2)s1 [Compound E208] |
| 2 | CCN(C[C@H](C)O)C(=O)Nc1ncc(Oc2ccnc(F)c2)s1 [Compound E185] |
| 50.1 | C[C@H](O)CN(C)C(=O)Nc1ncc(Oc2cncc(F)c2)s1 [Compound E176] |
| 7940 | CC(C)C(=O)Nc1cnc(Cc2cccc(F)c2)s1 [Compound E216, N-[2-[(3-fluorophenyl)methyl]thiazol-5-yl]-2-methyl-propanamide] |
| 2 | C[C@H](O)CN(C)C(=O)Nc1ncc(Oc2ccccc2)s1 [Compound E149] |

Continued, compound first:

| Compound | IC50 [nM] |
| --- | --- |
| CC1(C(=O)Nc2ncc(Oc3cncc(F)c3)s2)CCOCC1 [Compound E080] | 501 |
| NS(=O)(=O)N1CCC[C@@H]1C(=O)Nc1ncc(Oc2ccc(F)cc2)s1 [Compound E089, (2R)—N-[5-(4-fluorophenoxy)thiazol-2-yl]-1-sulfamoyl-pyrrolidine-2-carboxamide] | 25.1 |
| CC1(C(=O)Nc2ncc(Cc3cccc(F)c3F)s2)CCOCC1 [Compound E095] | 158 |
| O=C(Nc1ncc(Cc2cccc(F)c2)s1)C1(C(F)(F)F)CC1 [Compound E027] | 100 |
| CC1(C(=O)Nc2ncc(Cc3cc(F)ccc3F)s2)CCOCC1 [Compound E092, N-[5-[(2,5-difluorophenyl)methyl]thiazol-2-yl]-4-methyl-tetrahydropyran-4-carboxamide] | 100 |
| CC1(C(=O)Nc2ncc(Cc3ccc(F)cc3)s2)CCOCC1 [Compound E001, N-[5-[(4-fluorophenyl)methyl]thiazol-2-yl]-4-methyl-tetrahydropyran-4-carboxamide] | 398 |
| CC1(C(=O)Nc2ncc(Cc3cccc(F)c3)s2)CCC(=O)N1 (stereo not shown) [Compound E032] | 7940 |
| NS(=O)(=O)N1CCC[C@@H]1C(=O)Nc1ncc(Oc2ccccc2)s1 [Compound E086, (2R)—N-(5-phenoxythiazol-2-yl)-1-sulfamoyl-pyrrolidine-2-carboxamide] | 15.8 |
| C[C@@]1(C(=O)Nc2ncc(Oc3cccc(F)c3)s2)CCOC1 (single isomer, unassigned) [Compound E083, N-[5-(3-fluorophenoxy)thiazol-2-yl]-3-methyl-tetrahydrofuran-3-carboxamide] | 3.98 |
| CC(C)C(=O)Nc1nc(-c2ccccc2)cs1 [Compound E039] | 6310 |
| CCN(CCO)C(=O)Nc1ncc(Cc2cccc(F)c2)s1 [Compound E115] | 251 |
| C[C@H](O)CN(C)C(=O)Nc1ncc(Cc2cccc(F)c2)s1 [Compound E101] | 39.8 |
| CC(C(=O)Nc1ncc(Cc2ccccc2F)s1)N1CCCC1 (stereo not shown) [Compound E017] | 1260 |
| O=C(Nc1ncc(Cc2cccc(F)c2)s1)C1CCCC1O (stereo not shown) [Compound E038] | 1580 |
| CC(O)CN(C)C(=O)Nc1ncc(Cc2ccccc2F)s1 (stereo not shown) [Compound E099] | 398 |
| CC(C)C(=O)Nc1ncc(N(C)c2ccccc2)s1 [Compound E073] | 1580 |

| Compound | IC50 [nM] |
| --- | --- |
| C[C@]1(C(=O)Nc2ncc(Cc3cccc(F)c3)s2)CCCN1S(N)(=O)=O [Compound E063] | 3.16 |
| C[C@@]1(C(=O)Nc2ncc(Cc3cccc(F)c3)s2)CCOC1 (single isomer, unassigned) [Compound E048, N-[5-[(3-fluorophenyl)methyl]thiazol-2-yl]-3-methyl-tetrahydrofuran-3-carboxamide] | 126 |
| C[C@@H](O)CN(C)C(=O)Nc1ncc(Cc2cc(F)cc(F)c2)s1 [Compound E133] | 6.31 |
| C[C@@H](CO)C(=O)Nc1ncc(Cc2cccc(F)c2)s1 [Compound E031] | 2000 |
| O=C(Nc1ncc(Cc2cccc(F)c2)s1)N1CCOC[C@H]1CO [Compound E123] | 7940 |
| O=C(Nc1ncc(Cc2ccccc2F)s1)C1CCOC1 (stereo not shown) [Compound E008] | 3980 |
| CC1(C(=O)Nc2ncc(Cc3cccc(Cl)c3)s2)CCOCC1 [Compound E023] | 126 |
| CC(C)(C)OC(=O)N1CCC[C@@H]1C(=O)Nc1ncc(Oc2ccccc2)s1 [Compound E082, tert-butyl (2R)-2-[(5-phenoxythiazol-2-yl)carbamoyl]pyrrolidine-1-carboxylate] | 1260 |
| CN(CC(O)C(F)(F)F)C(=O)Nc1ncc(Cc2cccc(F)c2)s1 (stereo not shown) [Compound E105] | 15.8 |
| CC1(C(=O)Nc2ncc(Cc3ccccc3F)s2)CCN(S(N)(=O)=O)C1 (stereo not shown) [Compound E064] | 631 |
| CC1(C(=O)Nc2ncc(CC3CCCC3)s2)CCOCC1 [Compound E097] | 2000 |
| CC(C)(C)OC(=O)N1CCC[C@]1(C)C(=O)Nc1ncc(Cc2cccc(F)c2)s1 [Compound E037, tert-butyl (2R)-2-[[5-[(3-fluorophenyl)methyl]thiazol-2-yl]carbamoyl]-2-methyl-pyrrolidine-1-carboxylate] | 251 |
| O=C(Nc1ncc(Cc2cccc(F)c2)s1)N1CCCC1CO (stereo not shown) [Compound E104] | 316 |
| CC(C)C(=O)Nc1ncc(Cc2cc(F)ccc2F)s1 [Compound E093] | 6.31 |
| CC(C)(C#N)C(=O)Nc1ncc(Cc2ccccc2F)s1 [Compound E012] | 631 |
